Data published in US9617289B2, “RSV antiviral compounds” (JANSSEN R&D IRELAND, priority 2012, dated 2017).
Structures can show the parent of a compound that is named as a salt. Where two headings read alike, the source gives them in different places.

How the values were obtained:
rgRSV224 virus = assay: Antiviral activity: inhibition of rgRSV224 (GFP-expressing RSV) replication in HeLa cells; format: cell-based, respiratory syncytial virus; conditions: human respiratory syncytial virus, HeLa, 72 h
In short: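 HeLa cells infected with GFP-expressing rgRSV224 at MOI 0.02 alongside 4-fold compound dilutions in duplicate (0.5% DMSO). Incubated 3 days at 37 °C; EC50 taken as 50% inhibition of GFP expression by laser microscopy. CC50 measured in parallel uninfected cells by ATP content after 3 days; SI = CC50/EC50.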

[1] = read-out: pEC50, rgRSV224 (MOI=0.02) in HeLa cells, GFP expression three days post-virus exposure (converted)
[2] = read-out: RSV-wt_pEC50, rgRSV224 (MOI=0.02) in HeLa cells, GFP expression three days post-virus exposure

SMILES | EC50 (rgRSV224 virus; [1]) [nM] | melting point [°C] | EC50 (rgRSV224 virus; [2]) [nM]
CS(=O)(=O)CCCn1c(CN2C(=O)C3(CCN(S(=O)(=O)c4ccc(F)cc4)CC3)c3ccccc32)nc2cc(Cl)ccc21 [Compound 34, 1-({5-chloro-1-[3-(methylsulfonyl)propyl]-1H-benzimidazol-2-yl}methyl)-1′-[(4-fluorophenyl)-sulfonyl]spiro[indole-3,4′-piperidin]-2(1H)-one] | 1.26 | 183.97 | –
CS(=O)(=O)CCCn1c(CN2C(=O)C3(CCN(S(=O)(=O)C4CC4)CC3)c3ccccc32)nc2cc(Cl)ccc21 [Compound 35, 1-({5-chloro-1-[3-(methylsulfonyl)propyl]-1H-benzimidazol-2-yl}methyl)-1′-(cyclopropylsulfonyl)-spiro[indole-3,4′-piperidin]-2(1H)-one] | 0.794 | 194.85 | –
CC(C)(O)C(=O)N1CC2(C1)C(=O)N(Cc1cc3cc(Cl)ccc3n1CCCCO)c1ccccc12 [Compound 166, 1′-{[5-Chloro-1-(4-hydroxybutyl)-1H-indol-2-yl]methyl}-1-(2-hydroxy-2-methylpropanoyl)spiro[azetidine-3,3′-indol]-2′(1′H)-one] | – | 157.11 | 0.537
CC(C)OC(=O)N1CCC2(CC1)C(=O)N(Cc1nc3cc(Cl)ccc3n1CCCCF)c1cnccc12 [Compound 179, 1-Methylethyl 1′-{[5-chloro-1-(4-fluorobutyl)-1H-benzimidazol-2-yl]methyl}-2′-oxo-1′,2′-dihydro-1H-spiro[piperidine-4,3′-pyrrool[2,3-c]pyridine]-1-carboxylate] | – | 198.92 | 0.0437
N#CCCCn1c(CN2C(=O)C3(CCNCC3)c3ccncc32)cc2cc(Cl)ccc21 (as salt: hydrochloride) [Compound 78, 4-(5-chloro-2-((2′-oxospiro[piperidine-4,3′-pyrrolo[2,3-c]-pyridin]-1′(2′H)-yl)methyl)-1H-indol-1-yl)butanenitrile hydrochloride] | – | 82.02 | –
CC(O)(C(=O)N1CCC2(CC1)C(=O)N(Cc1nc3cc(Cl)ccc3n1CCCC#N)c1cnccc12)C(F)(F)F (stereo not shown) [Compound 116, 4-(5-Chloro-2-{[2′-oxo-1-(3,3,3-trifluoro-2-hydroxy-2-methylpropanoyl)spiro[piperidine-4,3′-pyrrolo[2,3-c]pyridin]-1′(2′H)-yl]methyl}-1H-benzimidazol-1-yl)butanenitrile] | – | – | 0.0708
N#CCCCn1c(CN2C(=O)C3(CCN(S(=O)(=O)C4CC4)CC3)c3ccncc32)nc2cc(Cl)ccc21 [Compound 112, 4-(5-Chloro-2-{[1-(cyclopropylsulfonyl)-2′-oxospiro-[piperidine-4,3′-pyrrolo[2,3-c]pyridin]-1′(2′H)-yl]methyl}-1H-benzimidazol-1-yl)butanenitrile] | – | – | 0.0251
O=C(OC1CCCC1)N1CCC2(CC1)C(=O)N(Cc1nc3cc(Cl)ccc3n1CCCC(F)(F)F)c1ccccc12 [Compound 47, Cyclopentyl 1-((5-chloro-1-(4,4,4-trifluorobutyl)-1H-benzo[d]imidazol-2-yl)methyl)-2-oxospiro[indoline-3,4′-piperidine]-1′-carboxylate] | 1.58 | – | –
CC(C)(C)OC(=O)N1CCC2(C1)C(=O)N(Cc1nc3cc(Cl)ccc3n1CCCC#N)c1ccccc12 (stereo not shown) [Compound 157, tert-Butyl 1-{[5-chloro-1-(3-cyanopropyl)-1H-benzimidazol-2-yl]methyl}-2-oxo-1,2-dihydro-1′H-spiro[indole-3,3′-pyrrolidine]-1′-carboxylate] | – | – | 3.98
N#CCCCn1c(CN2C(=O)C3(CN(C(=O)OC4COC4)C3)c3ccccc32)nc2cc(Cl)ccc21 [Compound 92, Oxetan-3-yl 1′-{[5-chloro-1-(3-cyanopropyl)-1H-benzimidazol-2-yl]methyl}-2′-oxo-1′,2′-dihydro-1H-spiro[azetidine-3,3′-indole]-1-carboxylate] | – | – | 0.0692
N#CCCCn1c(CN2C(=O)C3(CNC3)c3ccccc32)nc2cc(Cl)ccc21 [Compound 101, 4-{5-Chloro-2-[(2′-oxospiro[azetidine-3,3′-indol]-1′(2′H)-yl)methyl]-1H-benzimidazol-1-yl}butanenitrile] | – | – | 0.891
CC(C)(O)C(=O)N1CC2(C1)C(=O)N(Cc1nc3cc(Cl)ccc3n1CCCS(C)(=O)=O)c1ccccc12 [Compound 6, 1′-({5-chloro-1-[3-(methylsulfonyl)propyl]-1H-benzimidazol-2-yl}methyl)-1-(2-hydroxy-2-methylpropanoyl)spiro[azetidine-3,3′-indol]-2′(1′H)-one] | 0.501 | – | –
CS(=O)(=O)CCCn1c(CN2C(=O)C3(CCOCC3)c3ccccc32)nc2cc(Cl)ccc21 [Compound 40, 1-((5-chloro-1-(3-(methylsulfonyl)propyl)-1H-benzo[d]-imidazol-2-yl)methyl)-2′,3′,5′,6′-tetrahydrospiro[indoline-3,4′-pyran]-2-one] | 2.51 | – | –
CS(=O)(=O)CCCn1c(CN2C(=O)C3(CCOCC3)c3ccncc32)nc2cc(Cl)ccc21 [Compound 38, 1′-((5-chloro-1-(3-(methylsulfonyl)propyl)-1H-benzo[d]-imidazol-2-yl)methyl)-2,3,5,6-tetrahydrospiro[pyran-4,3′-pyrrolo[2,3-c]pyridin]-2′(1′H)-one] | 0.158 | – | –
CC(C)COC(=O)N1CC2(C1)C(=O)N(Cc1nc3cc(Cl)ccc3n1CCCC(F)(F)F)c1ccccc12 [Compound 45, isobutyl 1′-((5-chloro-1-(4,4,4-trifluorobutyl)-1H-benzo[d]-imidazol-2-yl)methyl)-2′-oxospiro[azetidine-3,3′-indoline]-1-carboxylate] | 0.398 | – | –
CS(=O)(=O)CCCn1c(CN2C(=O)C3(CCOCC3)c3cc(F)ccc32)nc2cc(Cl)ccc21 [Compound 19] | 3.98 | – | –
CC(=O)N1CCC2(CC1)C(=O)N(Cc1cc3cc(Cl)ccc3n1CCCC#N)c1cnccc12 [Compound 64, 4-(2-((1-acetyl-2′-oxospiro[piperidine-4,3′-pyrrolo[2,3-c]-pyridin]-1′(2′H)-yl)methyl)-5-chloro-1H-indol-1-yl)butane-nitrile] | 0.251 | – | –
N#CCCCn1c(CN2C(=O)C3(CN(C(=O)C(O)CO)C3)c3ccccc32)cc2cc(Cl)ccc21 (stereo not shown) [Compound 165, 4-(5-chloro-2-((1-(2,3-dihydroxypropanoyl)-2′-oxospiro[azetidine-3,3′-indolin]-1′-yl)methyl)-1H-indol-1-yl)butanenitrile] | – | – | 0.145
CC(C)(C)OC(=O)N1CCC2(CC1)C(=O)N(Cc1cc3cc(Cl)ccc3n1CCCS(C)(=O)=O)c1cnccc12 [Compound 1, tert-butyl 1′-({5-chloro-1-[3-(methylsulfonyl)propyl]-1H-indol-2-yl}methyl)-2′-oxo-1′,2′-dihydro-1H-spiro [piperidine-4,3′-pyrrolo[2,3-c]pyridine]-1-carboxylate] | 0.631 | – | –
CC(C)(O)C(=O)N1CCC2(CC1)C(=O)N(Cc1nc3cc(Cl)ccc3n1CCCC#N)c1cnccc12 [Compound 107, 4-(5-Chloro-2-{[1-(2-hydroxy-2-methylpropanoyl)-2′-oxo-spiro[piperidine-4,3′-pyrrolo[2,3-c]pyridin]-1′(2′H)-yl]-methyl}-1H-benzimidazol-1-yl)butanenitrile] | – | – | 0.0794
COC(=O)N[C@H]1C[C@]2(C1)C(=O)N(Cc1nc3cc(Cl)ccc3n1CCCC#N)c1ccccc12 [Compound 135, methyl ((1s,3s)-1′-((5-chloro-1-(3-cyanopropyl)-1H-benzo[d]imidazol-2-yl)methyl)-2′-oxospiro[cyclobutane-1,3′-indolin]-3-yl)carbamate] | – | – | 0.0955
